Assay results taken from paper PMC10901774, “Mirror-image ligand discovery enabled by single-shot fast-flow synthesis of D-proteins” (Nature Communications, 2024).
pIC50, pKd: −log10 of the molar value. Like-named read-outs stand apart in the source and are kept apart here. *1 amine or outer side, *2 acyl side, *3 side chain or, on linkers, in order; H or OH if unused. Where a SMILES comes first, the peptide text is derived from it. Bridges are numbered along the chain shown (N, C = ends). [ ]: non-standard residue; d: D form. Phenylene(1,4-NHCOCH2)2 = O=C(C[*:1])Nc1ccc(NC(=O)C[*:2])cc1

Tests used:
[1] = biological target: T1, CHIP23-303 recombinant protein (Homo sapiens, UniProt Q9UNE7); test: competition fluorescence polarization against FAM-Hsp70 peptide loaded CHIP; assay type: binding; details: SI table 1.27.1, read-out: Measured IC50
T1 construct: 6xHis (N, cleaved yes); TEV cleavage site (N, cleaved yes); made in house; host or cells: E. coli BL21 CodonPlus (pET21b-derived vector)
T1 sequence (Q9UNE7 23-303): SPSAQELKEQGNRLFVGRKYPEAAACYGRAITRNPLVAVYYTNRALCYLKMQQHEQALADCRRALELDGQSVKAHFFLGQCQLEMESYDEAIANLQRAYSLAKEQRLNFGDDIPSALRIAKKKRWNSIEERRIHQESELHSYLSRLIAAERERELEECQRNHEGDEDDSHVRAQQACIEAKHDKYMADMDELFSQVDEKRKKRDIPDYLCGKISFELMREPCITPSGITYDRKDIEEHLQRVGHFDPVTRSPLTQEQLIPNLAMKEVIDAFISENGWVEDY
From the text: Not limited to known D-proteins, we nominated an original target for MIPD screening, CHIP, and identified three macrocyclic D-peptide binders. CHIP is a member of the RING/U-Box family of E3 ligases that direct the ubiquitination of chaperones[66] and their bound client proteins[67],[68] (Fig. 6A). This interaction is driven by a common (I/M)EEVD motif present on the C-terminus of heat shock protein 70 (Hsp70) and Hsp90 family members that is recognized by the TPR domain of CHIP[69] (Fig. 6B). Degradation driven by CHIP is active in a diverse range of cellular processes from monitoring protein quality control[68] to mediating interferon-γ signaling. Masking of the CHIP-TPR domain can in theory modulate these signaling pathways and as a result is actively being pursued[69],[71]. In addition, CHIP belongs to the same protein family as MDM2 (E3 ubiquitin ligases) and has potential therapeutic relevance by being implicated in neurological disease. For these reasons, we hypothesized that this domain would be a valuable target for D-peptide discovery, and successfully isolated the protein in its mirror image form for MIPD screening. […] All three clusters feature conserved terminal residues with carboxylate functionalities (dD3 in CHIP.C1, dD1/dE2 in CHIP.C2, and dD12 in CHIP.C3), consistent with the conserved terminal aspartic acid residues found on CHIP substrates. Hydrophobic residues are retained in the i,i + 4/5 positions relative to the anchoring aspartic acid residue: dW6 in CHIP.C1, dW6 in CHIP.C2, and dA8 in CHIP.C3, presumably for interaction with the hydrophobic TPR groove.
Supplementary Figure 14. D-H109 SPR to Recombinant MDM2. Sensorgrams and steady state affinity plots of D-H109 binding to recombinant MDM2 are shown.
1.27. CHIP Peptide Binders from Phage Display
1.27.1. CHIP Binder Sequences
Cluster ID Sequence Measured IC50
CHIP.C1 H201ǂ Ac-pwedcawfawacyni-NH2 470 nM
CHIP.C2 H203ǂ Ac-phemcywadaycrys-NH2 550 nM
CHIP.C2 H204ǂ Ac-pldlcywaslhcivs-NH2 770 nM
Listed sequences were cyclized between C5 and C12 with N,N'-(1,4-phenylene)bis(2-bromoacetamide) . ǂSequences were selected for co-crystallization with CHIP.
1.27.2. CHIP Binder FP Validation
For the competition FP of CHIP, Helicons at 10 mM in DMSO were serially diluted 1:3 in DMSO for a total of 11 concentrations using a Mosquito LV (SPT Labtech), then diluted 1000-fold in buffer (1 x HBS-P+, Cytiva) in duplicate by the Mosquito LV (SPT Labtech) into a black polystyrene 384-well plate (Corning) (11-point three-fold peptide dilution series with top concentration = 10 μM). […]
HSP70). The plate was incubated and protected from light for 1 hour at room temperature prior to reading. Reads were performed on a CLARIOstar plate reader (BMG Labtech) with excitation at 485 nm, emission at 525 nm, and cutoff at 504 nm. […]

[2] = biological target: T2, recombinant MDM2 (biotinylated MDM2[25-109]) (Homo sapiens, UniProt Q00987); test: SPR of macrocyclic D-peptides to recombinant MDM2; assay type: binding; details: SI table 1.26.1, Biacore 8K, 25 °C, 1x HBS-P+ with 1% DMSO, top concentration 5 μM, N = 1, * = listed KD value is beyond tested concentrations, read-out: Measured KD
T2 construct: MDM2 (residues 25-109); made in house
From the text: We identified three binding clusters selective for D-MDM2 with phage display screening (Fig. 4A and SI Section 1.26). In brief, immobilized D-MDM2 from AFPS was screened against an unbiased phage library of 10^8 members displaying macrocyclic α-helical peptides. We sequenced phage particles that remained bound to the targets after washing using next-generation sequencing. Comparisons of sequencing reads to a spiked-in internal reference allowed for a semi-quantitative read-out of binding affinity as a function of protein bait concentration. […] Consistent with previously described α-helical peptide binders to MDM2[64],[65], all three clusters contain anchoring N-terminal tryptophan residues (dW2 in MDM2.C1, dW1 in MDM2.C2, and dW1 in MDM2.C3), and show conserved hydrophobic residues on the same α-helical face as the tryptophan residue (i,i + 4/5 and i,i + 8/9 relative to dW on each cluster). To validate the specificity of each binding cluster, we synthesized representative binding peptides in the D-form (Fig. 4B, D-H101 from MDM2.C1, D-H102 from MDM2.C2, and D-H103 from MDM2.C3) and measured their affinity to recombinant MDM2 with SPR. We observed binding constants of 5.5 μM, 2.4 μM, and 0.88 μM, respectively (Fig. 4C and Supplementary Figs. 6–8).
1.24. YAP1-WW1-WW2 Protein Expression […]
Cluster ID Sequence Measured KD […]

[3] = 400 nM CHIP23-303, 20 nM probe 5FAM-bAla-[…], 1 hour room temperature, duplicate

T2 sequence (Q00987 25-109): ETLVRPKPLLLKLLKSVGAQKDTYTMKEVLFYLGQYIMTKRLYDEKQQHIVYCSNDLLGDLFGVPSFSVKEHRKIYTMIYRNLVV

| Structure (SMILES) | pIC50 [1, 3] | other results |
| --- | --- | --- |
| CC[C@@H](C)[C@@H](NC(=O)[C@@H](CC(N)=O)NC(=O)[C@@H](Cc1ccc(O)cc1)NC(=O)[C@H]1CSCC(=O)Nc2ccc(cc2)NC(=O)CSC[C@@H](NC(=O)[C@@H](CC(=O)O)NC(=O)[C@@H](CCC(=O)O)NC(=O)[C@@H](Cc2c[nH]c3ccccc23)NC(=O)[C@H]2CCCN2C(C)=O)C(=O)N[C@H](C)C(=O)N[C@H](Cc2c[nH]c3ccccc23)C(=O)N[C@H](Cc2ccccc2)C(=O)N[C@H](C)C(=O)N[C@H](Cc2c[nH]c3ccccc23)C(=O)N[C@H](C)C(=O)N1)C(N)=O [D-H201] (Ac-[dP][dW][dE][dD][dC][dA][dW][dF][dA][dW][dA][dC][dY][dN][dI]-NH2; linker 5-12 via Phenylene(1,4-NHCOCH2)2) | 6.33 | – |
| CC[C@@H](C)[C@@H](NC(=O)[C@H]1CSCC(=O)Nc2ccc(cc2)NC(=O)CSC[C@@H](NC(=O)[C@@H](CC(C)C)NC(=O)[C@@H](CC(=O)O)NC(=O)[C@@H](CC(C)C)NC(=O)[C@H]2CCCN2C(C)=O)C(=O)N[C@H](Cc2ccc(O)cc2)C(=O)N[C@H](Cc2c[nH]c3ccccc23)C(=O)N[C@H](C)C(=O)N[C@H](CO)C(=O)N[C@H](CC(C)C)C(=O)N[C@H](Cc2c[nH]cn2)C(=O)N1)C(=O)N[C@@H](C(=O)N[C@H](CO)C(N)=O)C(C)C [H204] (Ac-[dP][dL][dD][dL][dC][dY][dW][dA][dS][dL][dH][dC][dI][dV][dS]-NH2; linker 5-12 via Phenylene(1,4-NHCOCH2)2) | 6.11 | – |
| CSCC[C@@H](NC(=O)[C@@H](CCC(=O)O)NC(=O)[C@@H](Cc1c[nH]cn1)NC(=O)[C@H]1CCCN1C(C)=O)C(=O)N[C@@H]1CSCC(=O)Nc2ccc(cc2)NC(=O)CSC[C@H](C(=O)N[C@H](CCCNC(=N)N)C(=O)N[C@H](Cc2ccc(O)cc2)C(=O)N[C@H](CO)C(N)=O)NC(=O)[C@@H](Cc2ccc(O)cc2)NC(=O)[C@@H](C)NC(=O)[C@@H](CC(=O)O)NC(=O)[C@@H](C)NC(=O)[C@@H](Cc2c[nH]c3ccccc23)NC(=O)[C@@H](Cc2ccc(O)cc2)NC1=O [D-H203] (Ac-[dP][dH][dE][dM][dC][dY][dW][dA][dD][dA][dY][dC][dR][dY][dS]-NH2; linker 5-12 via Phenylene(1,4-NHCOCH2)2) | 6.26 | – |
| CC(=O)N[C@H](CC(=O)O)C(=O)N1CCC[C@@H]1C(=O)N[C@H](C)C(=O)N[C@H](CO)C(=O)N[C@H](CCCNC(=N)N)C(=O)N[C@H](CC(N)=O)C(=O)N[C@@H]1CSCC(=O)Nc2ccc(cc2)NC(=O)CSC[C@H](C(=O)N[C@H](CCC(=O)O)C(=O)N[C@H](Cc2ccc(O)cc2)C(=O)N[C@H](Cc2c[nH]c3ccccc23)C(N)=O)NC(=O)[C@@H](CC(C)C)NC(=O)[C@@H](Cc2c[nH]cn2)NC(=O)[C@@H](C)NC(=O)[C@@H](C)NC(=O)[C@@H](Cc2c[nH]c3ccccc23)NC(=O)[C@@H](CCC(N)=O)NC1=O [H107] (Ac-[dD][dP][dA][dS][dR][dN][dC][dQ][dW][dA][dA][dH][dL][dC][dE][dY][dW]-NH2; linker 7-14 via Phenylene(1,4-NHCOCH2)2) | – | pKd [2]: 5.96 |
| CC(=O)N1CCC[C@@H]1C(=O)N[C@H](Cc1c[nH]c2ccccc12)C(=O)N[C@H](Cc1c[nH]c2ccccc12)C(=O)N[C@H](CCC(=O)O)C(=O)N[C@@H]1CSCC(=O)Nc2ccc(cc2)NC(=O)CSC[C@H](C(=O)N[C@H](CC(=O)O)C(=O)N[C@H](Cc2ccccc2)C(=O)N[C@H](CCCNC(=N)N)C(N)=O)NC(=O)[C@@H](CC(=O)O)NC(=O)[C@@H](CC(=O)O)NC(=O)[C@@H](C)NC(=O)[C@@H](CCC(N)=O)NC(=O)[C@@H](CO)NC(=O)[C@@H](CC(C)C)NC1=O [D-H202] (Ac-[dP][dW][dW][dE][dC][dL][dS][dQ][dA][dD][dD][dC][dD][dF][dR]-NH2; linker 5-12 via Phenylene(1,4-NHCOCH2)2) | – | pIC50 ([1]; unit as printed in the cell of H202, same competition FP): 5.91 |
